Values of other authors in US8765197B2, “Extract of herbal and composition containing the same” (Dong-A-Pharm, Co., Ltd., priority 2006, dated 2014).

Test system: functional dyspepsia

For COc1cc(N)c(Cl)cc1C(=O)NC1CCN(CCCOc2ccc(F)cc2)CC1OC (centres unmarked) [cisapride], the “cases in which effective” value (administered for 4 to 8 weeks) is given as “more than 70%” and the response rate (functional dyspepsia, placebo 27-53%) is given as 50-82%.
